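Each compound was tested at five concentrations against cells in 96-well plates for 48 hours. GI50 marks 50% less growth.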 Activity calls are given as the source filed them. No stated cut-off is given here; in the data, active = GI50 up to about 1.1 µM and inactive = higher.
What was measured:
Test in all cases: DTP human tumour cell line panel, 48 h
A498 = system: A498
A549 = system: A549
ACHN = system: ACHN
CCRF-CEM = system: CCRF-CEM
EKVX = system: EKVX
HCT-15 = system: HCT-15
Hs-578T = system: Hs-578T
IGROV-1 = system: IGROV-1
MCF7 = system: MCF7
MDA-MB-231 = system: MDA-MB-231
NCI-H23 = system: NCI-H23
NCI-H460 = system: NCI-H460
NCI-H522 = system: NCI-H522
OVCAR-5 = system: OVCAR-5
SF-295 = system: SF-295
SF-539 = system: SF-539
SNB-75 = system: SNB-75
SW-620 = system: SW-620
OVCAR-3 = system: OVCAR-3
TK-10 = system: TK-10

Measured: GI50

CCOC(=O)c1c(SCc2ccccc2)nc2c3ccccc3ccn12
> 100 µM: HCT-15
inactive: A498 54.5 µM | A549 > 100 µM | ACHN 24 µM | CCRF-CEM > 100 µM | EKVX > 100 µM | Hs-578T 21.4 µM | IGROV-1 38.9 µM | MCF7 > 100 µM | MDA-MB-231 > 100 µM | NCI-H23 > 100 µM | NCI-H460 55.6 µM | NCI-H522 37.2 µM | OVCAR-5 > 100 µM | SF-295 40.7 µM | SF-539 79.4 µM | SNB-75 25.9 µM | SW-620 > 100 µM

c1ccc2c(c1)CCCN1CCc3ccccc3C21 (centres undefined)
inactive: A498 > 100 µM | A549 60.1 µM | ACHN 68.9 µM | CCRF-CEM 49.1 µM | EKVX 39.9 µM | Hs-578T > 100 µM | IGROV-1 40.3 µM | MCF7 > 100 µM | MDA-MB-231 48.1 µM | NCI-H23 48.4 µM | NCI-H460 33.9 µM | NCI-H522 > 100 µM | OVCAR-3 > 100 µM | OVCAR-5 42.2 µM | SF-295 40.2 µM | SF-539 24 µM | SNB-75 98.2 µM | SW-620 35.5 µM | TK-10 61.4 µM
> 100 µM: HCT-15

CC(C)(CC1(C)NC(=O)NC1=O)OCc1ccccc1 (centres undefined)
> 100 µM: HCT-15
inactive: A498 > 100 µM | A549 > 100 µM | ACHN > 100 µM | EKVX > 100 µM | Hs-578T > 100 µM | IGROV-1 > 100 µM | MCF7 > 100 µM | MDA-MB-231 > 100 µM | NCI-H23 > 100 µM | NCI-H460 > 100 µM | NCI-H522 > 100 µM | OVCAR-3 > 100 µM | OVCAR-5 > 100 µM | SF-295 > 100 µM | SNB-75 > 100 µM | SW-620 > 100 µM | TK-10 > 100 µM

Oc1cc(-c2ccc(F)cc2)nc2ncccc12
34.2 µM: HCT-15
inactive: A498 87.3 µM | A549 52.8 µM | ACHN 73.8 µM | CCRF-CEM 36.2 µM | EKVX 39.4 µM | Hs-578T 65.2 µM | IGROV-1 67.5 µM | MCF7 38.5 µM | MDA-MB-231 > 100 µM | NCI-H23 63.4 µM | NCI-H522 35.4 µM | OVCAR-5 98.9 µM | SF-539 41 µM | SNB-75 20.7 µM | SW-620 38.2 µM | TK-10 > 100 µM

COc1ccc(/C=N/NC(=O)c2ccc(O)c(CN(C)C)c2)cc1
inactive: A498 18.2 µM | A549 > 100 µM | ACHN > 100 µM | CCRF-CEM > 100 µM | EKVX > 100 µM | Hs-578T > 100 µM | IGROV-1 > 100 µM | MCF7 > 100 µM | MDA-MB-231 > 100 µM | NCI-H23 > 100 µM | NCI-H460 > 100 µM | NCI-H522 10.5 µM | OVCAR-3 > 100 µM | OVCAR-5 > 100 µM | SF-295 > 100 µM | SF-539 > 100 µM | SW-620 > 100 µM | TK-10 > 100 µM
> 100 µM: HCT-15

CN(CC(=O)O)c1ncc2c(n1)-c1ccccc1SC2
> 100 µM: HCT-15
inactive: A498 > 100 µM | A549 > 100 µM | ACHN > 100 µM | CCRF-CEM > 100 µM | EKVX > 100 µM | Hs-578T > 100 µM | IGROV-1 > 100 µM | MCF7 69.8 µM | MDA-MB-231 > 100 µM | NCI-H23 > 100 µM | NCI-H460 > 100 µM | NCI-H522 > 100 µM | OVCAR-5 > 100 µM | SF-295 > 100 µM | SF-539 > 100 µM | SNB-75 > 100 µM | SW-620 > 100 µM | TK-10 > 100 µM

CCCOP(=O)(OCCC)OC(C(F)(F)F)C(F)(F)F
inactive: A498 > 100 µM | ACHN > 100 µM | CCRF-CEM > 100 µM | EKVX > 100 µM | Hs-578T > 100 µM | MCF7 > 100 µM | MDA-MB-231 > 100 µM | NCI-H23 > 100 µM | NCI-H460 > 100 µM | NCI-H522 > 100 µM | OVCAR-3 > 100 µM | OVCAR-5 > 100 µM | SF-539 > 100 µM | SNB-75 > 100 µM | TK-10 > 100 µM
> 100 µM: HCT-15

CC1(C)CC(C2=NCCO2)CC(C)(C)N1
> 100 µM: HCT-15
inactive: A498 > 100 µM | A549 > 100 µM | ACHN > 100 µM | CCRF-CEM > 100 µM | EKVX > 100 µM | Hs-578T > 100 µM | IGROV-1 > 100 µM | MCF7 27.7 µM | MDA-MB-231 > 100 µM | NCI-H23 > 100 µM | OVCAR-3 > 100 µM | OVCAR-5 > 100 µM | SF-295 > 100 µM | SF-539 > 100 µM | SNB-75 > 100 µM | TK-10 > 100 µM

Reference: ChEMBL document CHEMBL1201862, “PubChem BioAssay data set” (2004)
